# Data reported in patent publication US20070225203A1, “Method and Composition for Preventing Multiple Organ Dysfunction Syndrome” (N.V. NUTRICIA, priority 2003, published 2007).
# Tests used:
# [1] = target: xanthine oxidase (Homo sapiens, UniProt P47989); assay: Xanthine oxidase inhibition by flavonoids; type: biochemical
# [2] = Oxidative stress, plasma concentrations of malon dialdehyde
# [3] = system: HepG2 cells; assay: GTP concentration in folic acid challenged HepG2 cells; type: cell-based, human
# Experimental: HepG2 cells, a human hepatocarcinoma cell line, were obtained from ATCC. These were maintained in MEM supplemented with 10% FCS; 1% NEAA; 1% penicillin/streptomycin mixture. Cells were seeded primarily at a density of approximately 1-2×10^6 cells and were split and transferred to new flasks when showing 70-90% confluency. 96-well microtitre plates (ex Micronic, Leylstad, N L.), containing 0.35×10^6 cells per well were incubated for 24 hours at 37° C.; 5% CO2. HepG2's were folic acid challenged by addition of folic acid free media for 1 hour. This folic acid challenged cells were compared with cells that remained at an increasing concentration of folic acid or ribose.
# Nucleotides were measured as described by van Hoorn et al., Analytical Biochemistry (2003), 320, 82-87.
# 1. 6.5 hours incubation of HepG2 cells in either folic acid depleted media or media containing 2.27 μM folic acid
# xanthine oxidase, sequence (P47989 whole entry, species assumed): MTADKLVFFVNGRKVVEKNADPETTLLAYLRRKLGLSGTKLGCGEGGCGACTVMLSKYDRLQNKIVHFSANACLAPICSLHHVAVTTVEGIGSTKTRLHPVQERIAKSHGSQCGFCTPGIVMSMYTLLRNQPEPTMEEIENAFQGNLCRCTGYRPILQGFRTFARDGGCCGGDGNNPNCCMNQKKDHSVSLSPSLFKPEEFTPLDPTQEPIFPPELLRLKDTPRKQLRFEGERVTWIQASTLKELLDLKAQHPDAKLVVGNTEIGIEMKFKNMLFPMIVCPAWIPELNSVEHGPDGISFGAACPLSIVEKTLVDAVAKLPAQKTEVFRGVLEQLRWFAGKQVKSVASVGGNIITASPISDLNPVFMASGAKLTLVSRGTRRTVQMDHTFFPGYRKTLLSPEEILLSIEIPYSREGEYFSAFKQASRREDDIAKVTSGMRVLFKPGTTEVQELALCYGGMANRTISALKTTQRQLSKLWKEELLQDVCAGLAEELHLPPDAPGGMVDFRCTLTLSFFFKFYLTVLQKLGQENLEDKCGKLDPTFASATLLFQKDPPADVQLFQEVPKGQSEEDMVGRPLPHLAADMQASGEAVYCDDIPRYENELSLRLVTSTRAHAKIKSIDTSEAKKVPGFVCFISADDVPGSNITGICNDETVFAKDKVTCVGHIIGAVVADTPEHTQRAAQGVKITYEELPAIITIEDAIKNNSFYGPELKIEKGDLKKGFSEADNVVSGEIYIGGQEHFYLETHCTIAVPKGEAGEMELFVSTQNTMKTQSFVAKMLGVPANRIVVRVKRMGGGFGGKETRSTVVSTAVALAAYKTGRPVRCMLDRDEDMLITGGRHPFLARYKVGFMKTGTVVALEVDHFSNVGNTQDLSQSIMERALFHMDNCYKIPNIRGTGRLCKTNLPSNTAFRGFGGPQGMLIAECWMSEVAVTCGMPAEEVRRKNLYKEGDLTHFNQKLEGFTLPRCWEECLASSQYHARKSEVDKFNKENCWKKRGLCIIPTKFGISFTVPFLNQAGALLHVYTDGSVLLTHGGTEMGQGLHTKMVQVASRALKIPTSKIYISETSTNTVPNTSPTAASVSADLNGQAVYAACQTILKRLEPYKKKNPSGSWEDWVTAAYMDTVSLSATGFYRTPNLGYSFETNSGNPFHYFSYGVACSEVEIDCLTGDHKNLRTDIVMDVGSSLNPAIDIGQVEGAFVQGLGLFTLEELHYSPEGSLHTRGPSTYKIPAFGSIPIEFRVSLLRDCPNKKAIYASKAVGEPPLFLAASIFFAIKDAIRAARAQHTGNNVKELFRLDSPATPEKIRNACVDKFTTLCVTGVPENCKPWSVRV
xanthine oxidase inhibition [1],Structure (SMILES),"oxidative stress, plasma concentrations of malon dialdehyde [2]","GTP concentration in HepG2 cells ([3]; single agent vs folic acid challenged cells, folic acid 2.27 μM, 6.5 hours)","GTP concentration in HepG2 cells, ribose on top of folic acid ([3]; combination of ribose with folic acid, FIG. 10)"
good xanthine oxidase inhibitors,O=c1cc(-c2ccc(O)cc2)oc2cc(O)cc(O)c12 [apigenin],inhibit oxidative stress,–,–
–,Nc1nc2ncc(CNc3ccc(C(=O)N[C@@H](CCC(=O)O)C(=O)O)cc3)nc2c(=O)[nH]1 [folic acid],–,significantly increased,–
good xanthine oxidase inhibitors,O=c1cc(-c2ccc(O)c(O)c2)oc2cc(O)cc(O)c12 [luteolin],inhibit oxidative stress,–,–
–,O=C[C@H](O)[C@H](O)[C@H](O)CO [ribose],–,–,additive effect

Structure (SMILES),xanthine oxidase inhibition [1],"oxidative stress, plasma concentrations of malon dialdehyde [2]","GTP concentration in HepG2 cells ([3]; single agent vs folic acid challenged cells, folic acid 2.27 μM, 6.5 hours)","GTP concentration in HepG2 cells, ribose on top of folic acid ([3]; combination of ribose with folic acid, FIG. 10)"
O=c1c(O)c(-c2ccc(O)c(O)c2)oc2cc(O)cc(O)c12 [quercetin],good xanthine oxidase inhibitors,inhibit oxidative stress,–,–
